For 11 molecules, IC50 results are on record in US10385069B2, “Imidazo[2,1-B]thiazole and 5,6-dihydroimidazo[2,1-B]thiazole derivatives useful as S100-inhibitors” (Active Biotech AB, priority 2015, dated 2019).

The assay has as its target T1, interaction between biotinylated human S100A9 and human RAGE-Fc (Homo sapiens, UniProt P06702).
T1 construct: made in house; host or cells: E. coli
T1 sequence (P06702 1-114): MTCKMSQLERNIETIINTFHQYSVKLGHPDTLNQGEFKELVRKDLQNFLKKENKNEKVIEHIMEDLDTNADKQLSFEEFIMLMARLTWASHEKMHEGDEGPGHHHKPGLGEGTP
The experiment in a line: AlphaScreen inhibition assay, biot-hS100A9:hRAGE-Fc. Format: binding. The note with it: biot-hS100A9 pre-incubated with compound 1 h, assay buffer with CaCl2 and ZnCl2. Put shortly: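 Biotinylated human S100A9, preincubated with compound, binds human RAGE-Fc on protein A Acceptor beads in HBS-P with CaCl2 and ZnCl2; streptavidin Donor beads added, AlphaScreen signal read. Protein levels set by cross-titration; beads 20 μg/mL final. Percent inhibition versus DMSO control; IC50 from varied compound concentrations.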
A general note: Alpha assays give light when donor and acceptor beads are brought close together.
As a reminder, the IC50 is the midpoint of a concentration-inhibition curve. With `CN1CCN(Cc2c(C(=O)O)nc3sc4c(n23)CCC(C(C)(C)C)C4)CC1` (centres unmarked) [Example 273, 10-tert-Butyl-3-[(4-methylpiperazin-1-yl)methyl]-7-thia-2,5-diazatricyclo[6.4.0.0^2,6]dodeca-1(8),3,5-triene-4-carboxylic acid], the IC50 came to 1490 nM. For `Cc1c(C(=O)O)nc2sc3c(Cl)c(F)ccc3n12` [Example 234, 9-Chloro-10-fluoro-3-methyl-7-thia-2,5-diazatricyclo[6.4.0.0^2,6]dodeca-1(8),3,5,9,11-pentaene-4-carboxylic acid] the value was 90 nM; for `O=C(O)c1cn2c(n1)sc1c(Cl)c(N3CCCC3)ccc12` [Example 248, 9-Chloro-10-(pyrrolidin-1-yl)-7-thia-2,5-diazatricyclo[6.4.0.0^2,6]dodeca-1(8),3,5,9,11-pentaene-4-carboxylic acid], 1000 nM. Turning to `O=C(O)c1cn2c(n1)sc1c(Cl)c(Cl)c(OCCN3CCOCC3)cc12` [Example 261, 9,10-Dichloro-11-[2-(morpholin-4-yl)ethoxy]-7-thia-2,5-diazatricyclo[6.4.0.0^2,6]dodeca-1(8),3,5,9,11-pentaene-4-carboxylic acid], the half-maximal inhibitory concentration (IC50) worked out at 550 nM. For `CC1(C)Cc2c(sc3nc(CC(=O)O)cn23)C(C)(C)C1` [Example 46, 2-{9,9,11,11-Tetramethyl-7-thia-2,5-diazatricyclo[6.4.0.0^2,6]dodeca-1(8),3,5-trien-4-yl}acetic acid] the value was 4940 nM; for `CC1(C)Cc2c(sc3nc(C(=O)O)c(N4CCOCC4)n23)C(C)(C)C1` [Example 233, 9,9,11,11-Tetramethyl-3-(morpholin-4-yl)-7-thia-2,5-diazatricyclo[6.4.0.0^2,6]dodeca-1(8),3,5-triene-4-carboxylic acid], 430 nM; for `CC1(C)Cc2c(sc3nc(C(=O)O)c(Br)n23)C(C)(C)C1` [Example 222, 3-Bromo-9,9,11,11-tetramethyl-7-thia-2,5-diazatricyclo[6.4.0.0^2,6]dodeca-1(8),3,5-triene-4-carboxylic acid], 690 nM. As for `O=C(O)c1cn2c(n1)sc1c(Cl)cc(Cl)cc12` [Example 204, 9,11-Dichloro-7-thia-2,5-diazatricyclo[6.4.0.0^2,6]dodeca-1(8),3,5,9,11-pentaene-4-carboxylic acid], the figure is 940 nM; as for `CN1CCN(c2c(C(=O)O)nc3sc4c(Cl)c(F)ccc4n23)CC1` [Example 276, 9-Chloro-10-fluoro-3-(4-methylpiperazin-1-yl)-7-thia-2,5-diazatricyclo[6.4.0.0^2,6]dodeca-1(8),3,5,9,11-pentaene-4-carboxylic acid], 390 nM; as for `CC1CCCc2c1sc1nc(C(=O)NS(C)(=O)=O)cn21` (single isomer, unassigned) [Example 49, N-Methanesulfonyl-9-methyl-7-thia-2,5-diazatricyclo[6.4.0.0^2,6]dodeca-1(8),3,5-triene-4-carboxamide], 1010 nM. With `O=C(O)c1nc2sc3c(Cl)c(F)ccc3n2c1NCCN1CCCC1` [Example 277, 9-Chloro-10-fluoro-3-{[2-(pyrrolidin-1-yl)ethyl]amino}-7-thia-2,5-diazatricyclo[6.4.0.0^2,6]dodeca-1(8),3,5,9,11-pentaene-4-carboxylic acid], the IC50 came out at 1050 nM.
